Results from ChEMBL document CHEMBL1151622, “Occurrence of gerrardine in Cassipourea guianensis” (1984).
In brackets after ≈: the same amount, converted by molar mass.

How the values were obtained:
Assay type in all cases: functional
Escherichia coli [1] = assay: Antimicrobial activity against Escherichia coli NIHJ JC-2 after 2 days; conditions: 48 h
Candida albicans = assay: Antimicrobial activity against Candida albicans TA
Klebsiella pneumoniae = assay: Antimicrobial activity against Klebsiella pneumoniae DA after 2 days; conditions: 48 h
Escherichia coli [2] = assay: Antimicrobial activity against Escherichia coli 0-111 after 2 days; conditions: 48 h

MIC (Escherichia coli [1]): 100 µg/mL (≈ 307 µM)
MIC (Candida albicans): 50 µg/mL (≈ 154 µM)
MIC (Klebsiella pneumoniae): 100 µg/mL (≈ 307 µM)
MIC (Escherichia coli [2]): 100 µg/mL (≈ 307 µM)
Structure (SMILES): CN1[C@@H]([C@@H]2SSC[C@@H]2O)CC[C@@H]1[C@@H]1SSC[C@@H]1O [GERRARDINE]
